Data: ChEMBL document CHEMBL4354830, “Discovery of Benzo[cd]indol-2(1H)-ones and Pyrrolo[4,3,2-de]quinolin-2(1H)-ones as Bromodomain and Extra-Terminal Domain (BET) Inhibitors with Selectivity for the First Bromodomain with Potential High Efficiency against Acute Gouty Arthritis” (J Med Chem, 2019)
The source made the active and inactive calls. The calls are words filed in the database; no cut-off is given here.

Legend:
Rattus norvegicus [1] = assay: (§1) In vivo inhibition of MSU-induced pyroptosis in Sprague-Dawley rat model of acute gout arthritis assessed as caspase-/PI- macrophage cells in synovial tissue at 1 mg/kg, ia administered 1 hr before MSU challenge and measured upto 24 hrs by PI staining based flow cytometric analysis (reference value: 63.6 %); assay type: functional; design: scale not given: the % may be the effect or the level left
Rattus norvegicus [2] = assay: as §1, with “caspase-/PI+” for “caspase-/PI-”, “8.71” for “63.6”; assay type: functional; design: scale not given: the % may be the effect or the level left
[3] = molecular target: T1, Bromodomain-containing protein 4 (Homo sapiens, UniProt O60885); assay: Displacement of tetra-acetylated histone H4 peptide (1-21) from recombinant human N-terminal His-tagged BRD4 BD2 (349 to 460 residues) expressed in Escherichia coli incubated for 30 mins followed by further incubation with tetra-acetylated histone H4 peptide (1-21) for 30 mins by Alphascreen assay
[4] = molecular target: Bromodomain testis-specific protein (Homo sapiens, UniProt Q58F21); assay: Displacement of tetra-acetylated histone H4 peptide (1-21) from BRDT BD1 (unknown origin) incubated for 30 mins followed by further incubation with tetra-acetylated histone H4 peptide (1-21) for 30 mins by Alphascreen assay
[5] = molecular target: Bromodomain-containing protein 2 (Homo sapiens, UniProt P25440); assay: Displacement of tetra-acetylated histone H4 peptide (1-21) from BRD2 BD2 (unknown origin) incubated for 30 mins followed by further incubation with tetra-acetylated histone H4 peptide (1-21) for 30 mins by Alphascreen assay
[6] = molecular target: Bromodomain-containing protein 3 (Homo sapiens, UniProt Q15059); assay: Displacement of tetra-acetylated histone H4 peptide (1-21) from BRD3 BD2 (unknown origin) incubated for 30 mins followed by further incubation with tetra-acetylated histone H4 peptide (1-21) for 30 mins by Alphascreen assay
Homo sapiens [7] = species on record: Homo sapiens; assay: Selectivity index, ratio of IC50 for BRDT BD1 (unknown origin) to IC50 for recombinant human N-terminal His-tagged BRD4 BD1 (44 to 170 residues) expressed in Escherichia coli by AlphaScreen assay
Homo sapiens [8] = species on record: Homo sapiens; assay: Selectivity index, ratio of IC50 for BRD2 BD2 (unknown origin) to IC50 for recombinant human N-terminal His-tagged BRD4 BD1 (44 to 170 residues) expressed in Escherichia coli by AlphaScreen assay
Homo sapiens [9] = species on record: Homo sapiens; assay: Selectivity index, ratio of IC50 for BRD3 BD2 (unknown origin) […] (unknown origin) by AlphaScreen assay
[10] = Metabolic stability in human liver microsomes assessed as intrinsic clearance measured per mg protein upto 60 mins by LC/MS-MS analysis; assay type: ADME, Microsome; settings: read-out: CLH
[11] = Metabolic stability in human assessed as intrinsic hepatic clearance by LC/MS-MS analysis; assay type: ADME; settings: read-out: CLH
[12] = Metabolic stability in monkey liver microsomes assessed as intrinsic clearance per mg protein measured upto 60 mins by LC/MS-MS analysis; assay type: ADME, Macaca mulatta, Microsome; settings: rhesus monkey, read-out: CLH
[13] = Metabolic stability in monkey assessed as intrinsic hepatic clearance by LC/MS-MS analysis; assay type: ADME, Macaca mulatta; settings: rhesus monkey; read-out: CLH
[14] = Metabolic stability in dog assessed as intrinsic hepatic clearance by LC/MS-MS analysis; assay type: ADME, Canis lupus familiaris; settings: read-out: CLH
[15] = Metabolic stability in rat liver microsomes assessed as half life measured upto 60 mins by LC/MS-MS analysis; assay type: ADME, Microsome
[16] = Metabolic stability in rat liver microsomes assessed as intrinsic clearance measured per mg protein upto 60 mins by LC/MS-MS analysis; assay type: ADME, Microsome; settings: read-out: CLH
[17] = Metabolic stability in rat assessed as intrinsic hepatic clearance by LC/MS-MS analysis; assay type: ADME; settings: read-out: CLH
[18] = molecular target: T1, Bromodomain-containing protein 4; assay: Inhibition of BRD4 BD1 in human THP1 cells assessed as inhibition of MSU-induced NF-kappaB P65 phosphorylation at 1 uM incubated for 1 hr followed by MSU treatment and measured after 12 hrs by Western blot analysis; assay type: cell-based
[19] = molecular target: T1, Bromodomain-containing protein 4; assay: Inhibition of BRD4 BD1 in human THP1 cells assessed as inhibition of MSU-induced NLRP3 inflammasome at 1 uM incubated for 1 hr followed by MSU treatment and measured after 12 hrs by immunofluorescence based confocal microscopy analysis; assay type: cell-based
[20] = molecular target: T1, Bromodomain-containing protein 4; assay: Inhibition of BRD4 BD1 in human THP1 cells assessed as inhibition of MSU-induced ASC activation at 1 uM incubated for 1 hr followed by MSU treatment and measured after 12 hrs by immunofluorescence based confocal microscopy analysis; assay type: cell-based
[21] = molecular target: T1, Bromodomain-containing protein 4; assay: Inhibition of BRD4 BD1 in human THP1 cells assessed as Inhibition of MSU-induced IL-1beta secretion at 1 uM incubated for 1 hr followed by MSU treatment and measured after 12 hrs by ELISA; assay type: cell-based
Rattus norvegicus [22] = assay: Anti-arthritic activity in Sprague-Dawley rat model of acute gout arthritis assessed as reduction in MSU-induced neutrophil infiltration in synovial tissue at 1 mg/kg, ia administered 1 hr before MSU challenge and measured upto 24 hrs hematoxylin and eosin staining based histopathological analysis; assay type: functional, organism-based
[23] = molecular target: T1, Bromodomain-containing protein 4; assay: Inhibition of BRD4 BD1 in human THP1 cells assessed as inhibition of MSU-induced pyroptosis by measuring caspase-/PI- cells at 1 uM incubated for 1 hr followed by MSU treatment and measured after 12 hrs by PI/caspase 1 double staining based flow cytometric analysis (reference value: 76.2 %); assay type: cell-based; design: scale not given: the % may be the effect or the level left
Rattus norvegicus [24] = assay: In vivo inhibition of MSU-induced BRD4 expression in synovial tissue of Sprague-Dawley rat model of acute gout arthritis at 1 mg/kg, ia administered 1 hr before MSU challenge and measured upto 24 hrs by Western blot analysis; assay type: functional, organism-based
Rattus norvegicus [25] = assay: In vivo inhibition of MSU-induced NF-kappaB P65 phosphorylation in synovial tissue of Sprague-Dawley rat model of acute gout arthritis at 1 mg/kg, ia administered 1 hr before MSU challenge and measured upto 24 hrs by Western blot analysis; assay type: functional, organism-based
Rattus norvegicus [26] = assay: In vivo inhibition of MSU-induced ASC activation in synovial tissue of Sprague-Dawley rat model of acute gout arthritis at 1 mg/kg, ia administered 1 hr before MSU challenge and measured upto 24 hrs by immunofluorescence based confocal microscopy analysis; assay type: functional, organism-based
Rattus norvegicus [27] = assay: as §1, with “caspase+/PI-” for “caspase-/PI-”, “21.9” for “63.6”; assay type: functional; design: scale not given: the % may be the effect or the level left
[28] = molecular target: T1, Bromodomain-containing protein 4; assay: Inhibition of BRD4 BD1 in human THP1 cells assessed as inhibition of MSU-induced pyroptosis by measuring caspase+/PI+ cells at 1 uM incubated for 1 hr followed by MSU treatment and measured after 12 hrs by PI/caspase 1 double staining based flow cytometric analysis (reference value: 12.7 %); assay type: cell-based; design: scale not given: the % may be the effect or the level left
[29] = molecular target: T1, Bromodomain-containing protein 4; assay: Inhibition of BRD4 BD1 in human THP1 cells assessed as inhibition of MSU-induced pyroptosis by measuring caspase-/PI+ cells at 1 uM incubated for 1 hr followed by MSU treatment and measured after 12 hrs by PI/caspase 1 double staining based flow cytometric analysis (reference value: 6.8 %); assay type: cell-based; design: scale not given: the % may be the effect or the level left
[30] = molecular target: T1, Bromodomain-containing protein 4; assay: Inhibition of BRD4 BD1 in human THP1 cells assessed as inhibition of MSU-induced co-localization of NLRP3 and ASC at 1 uM incubated for 1 hr followed by MSU treatment and measured after 12 hrs by immunofluorescence based confocal microscopy analysis; assay type: cell-based

Sequence of Bromodomain-containing protein 3 (Q15059 whole entry, the tested form may be a part): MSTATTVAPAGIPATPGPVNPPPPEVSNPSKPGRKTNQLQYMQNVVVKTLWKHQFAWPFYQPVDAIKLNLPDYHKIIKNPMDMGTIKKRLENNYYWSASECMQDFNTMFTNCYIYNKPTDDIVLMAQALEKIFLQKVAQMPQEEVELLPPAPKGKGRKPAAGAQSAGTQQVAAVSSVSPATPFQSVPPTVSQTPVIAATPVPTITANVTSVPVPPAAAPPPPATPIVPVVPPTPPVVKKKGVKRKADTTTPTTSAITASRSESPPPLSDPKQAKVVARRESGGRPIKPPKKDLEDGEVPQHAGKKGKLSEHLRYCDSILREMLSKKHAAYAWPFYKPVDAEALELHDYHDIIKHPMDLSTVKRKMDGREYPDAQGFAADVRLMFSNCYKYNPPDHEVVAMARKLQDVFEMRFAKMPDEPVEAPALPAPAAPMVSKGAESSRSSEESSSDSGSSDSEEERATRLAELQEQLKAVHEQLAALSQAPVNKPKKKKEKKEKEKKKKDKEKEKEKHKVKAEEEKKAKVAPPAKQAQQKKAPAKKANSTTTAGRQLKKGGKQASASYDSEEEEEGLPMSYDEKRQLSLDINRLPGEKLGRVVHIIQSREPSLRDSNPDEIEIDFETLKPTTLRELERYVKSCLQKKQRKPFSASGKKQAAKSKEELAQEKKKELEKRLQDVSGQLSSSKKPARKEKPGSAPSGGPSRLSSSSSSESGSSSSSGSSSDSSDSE
Sequence of Bromodomain-containing protein 2 (P25440 whole entry): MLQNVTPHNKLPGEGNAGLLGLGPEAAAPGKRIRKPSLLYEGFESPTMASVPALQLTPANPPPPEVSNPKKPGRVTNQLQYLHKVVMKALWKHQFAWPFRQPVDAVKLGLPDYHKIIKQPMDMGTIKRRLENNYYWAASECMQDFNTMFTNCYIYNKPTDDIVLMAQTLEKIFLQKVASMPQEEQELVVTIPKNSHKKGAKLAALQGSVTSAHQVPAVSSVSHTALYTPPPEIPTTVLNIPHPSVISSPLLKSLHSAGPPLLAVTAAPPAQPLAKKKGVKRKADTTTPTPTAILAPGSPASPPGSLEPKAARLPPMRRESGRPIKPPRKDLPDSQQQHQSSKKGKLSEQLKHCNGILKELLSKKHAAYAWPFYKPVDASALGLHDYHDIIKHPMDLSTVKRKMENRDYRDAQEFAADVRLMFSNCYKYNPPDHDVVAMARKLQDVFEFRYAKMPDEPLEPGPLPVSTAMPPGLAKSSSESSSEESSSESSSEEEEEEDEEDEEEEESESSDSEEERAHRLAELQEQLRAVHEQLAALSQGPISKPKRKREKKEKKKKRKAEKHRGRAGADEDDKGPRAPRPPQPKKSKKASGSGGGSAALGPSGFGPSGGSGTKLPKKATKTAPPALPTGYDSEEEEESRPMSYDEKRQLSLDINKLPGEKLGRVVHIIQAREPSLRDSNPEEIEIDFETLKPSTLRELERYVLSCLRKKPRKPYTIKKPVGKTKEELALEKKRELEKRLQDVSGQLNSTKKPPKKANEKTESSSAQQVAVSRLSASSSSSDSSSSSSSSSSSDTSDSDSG

COc1ccccc1S(=O)(=O)Nc1ccc2c3c(cc(-n4cnc(C)c4)nc13)C(=O)N2C
Activity (Rattus norvegicus [1]): 83.1%
Activity (Rattus norvegicus [2]): 15.4%
IC50 [3]: 12.1 µM
IC50 [4]: 0.357 µM
IC50 [5]: 21.4 µM
IC50 [6]: 49.8 µM
Ratio IC50 (Homo sapiens [7]): 4.1
Ratio IC50 (Homo sapiens [8]): 244
Ratio IC50 (Homo sapiens [9]): 202
microsomal CLint [10]: 93.5 µL/min/mg
CLint scaled [11]: 88.4 mL/min/kg
microsomal CLint [12]: 135 µL/min/mg
CLint scaled [13]: 194 mL/min/kg
CLint scaled [14]: 192 mL/min/kg
half-life [15]: 9.45 min
microsomal CLint [16]: 147 µL/min/mg
CLint scaled [17]: 264 mL/min/kg
inhibition [18]: Active
inhibition [19]: Active
inhibition [20]: Active
inhibition [21]: Active
inhibition (Rattus norvegicus [22]): Active
Activity [23]: 86.6%
inhibition (Rattus norvegicus [24]): Active
inhibition (Rattus norvegicus [25]): Active
inhibition (Rattus norvegicus [26]): Active
Activity (Rattus norvegicus [27]): 0.43%
Activity [28]: 4.4%
Activity [29]: 4.9%
inhibition [30]: Active
